Measured values taken from US12415184B2, “Device for analysis of cellular motility” (MOTILITYCOUNT APS, priority 2013, dated 2025).

Tested on: sperm cells
Experiment: effects of detection agents on the motility of sperm cells (microscopic analysis)
Format: cell-based
Conditions: 60 min, ambient temperature; for Cells: cells in total / Cells: motile cells: 50:50 with sperm sample 60/72
Experimental: The possible effects of two detection agents, MTT and crystal violet, on the motility of sperm cells were tested. Stock solutions of MTT and crystal violet of 5 mg/ml and 1 mg/ml, respectively, were prepared, and these were diluted two-fold serially. The detection agent solutions were mixed with sperm samples comprising 60 million motile cells per milliliter and 72 million cells per milliliter in total (denoted 60/72) in a 50:50 ratio and the mixtures were incubated for 60 min at ambient temperature before analysing the cells microscopically.

## CN(C)c1ccc(C(=C2C=CC(=[N+](C)C)C=C2)c2ccc(N(C)C)cc2)cc1 [Crystal violet, crystal violet]
Crystal violet 0.125 mg/ml
  Cells: cells in total: 56 million per milliliter
  Cells: motile cells: 37 million per milliliter
Crystal violet 0.25 mg/ml
  Cells: cells in total: 56 million per milliliter
  Cells: motile cells: 32 million per milliliter
Crystal violet 0.5 mg/ml
  Cells: cells in total: 43 million per milliliter
  Cells: motile cells: 27 million per milliliter
Crystal violet 1 mg/ml
  Cells: cells in total: 63 million per milliliter
  Cells: motile cells: 40 million per milliliter
Concentrations of Table 3
  ratio of motile versus non-motile cells (% motile): not affected
